Laboratory results taken from patent US8865724B2, “Preparation of 2-methyl-4-amino-5(substituted-1H-1,2,3-triazolyl)methylpyrimidine derivatives and microbicidal activity thereof” (Central China Normal University, priority 2011, dated 2014).

Tests used:
[1] = test system: tobacco brown spot; experiment: microbe, parasite or virus in culture; type: cell-based, Alternaria alternate (Fries) Keissler; details: 48 h, testing concentration of 100 μg/g; Table 4; read-out: Tobacco brown spot Average inhibition rate (%)
[2] = test system: gray mold of cucumber; experiment: Spawn growth rate on agar plates (Embodiment 9); type: cell-based, Botrytis cinerea; details: 48 h, testing concentration of 100 μg/g; Table 4; read-out: Gray mold of cucumber Average inhibition rate (%)
[3] = test system: Downy Mildew of Cucumber; experiment: Microbicidal activity on cucumber seedlings, spray then spore inoculation (Embodiment 8); details: for pest or weed control at 500 µg/g: Cucumis sativus, read-out: Downy Mildew of Cucumber Average inhibition rate (%)
Experimental: (§1) (Pseudomonassyringaepv. tomato (Okabe) Young, Dye & Wilkie), Cucumber Angular Leaf Spot, Rice Sheath Blight Disease (Rhizoctonia solani), Corynespora Leaf Spot of Cucumber (Corynespora cassiicola), Downy Mildew of Cucumber (Cucumber Downy Mildew).
(§2) Testing agents and control agents were sprayed uniformly at A.M. of a sunshine day on the cucumber seminal leaves. After 2 hours, the leaves were inoculated with pathogenic microbes and cultured at humidity. […] Strip inoculation is used for Rice Sheath Blight Disease and phytophthora blight of pepper, in which the liquor was sprayed and after 2 hours, inoculation of strips was performed followed by culturing at humidity. After full occurrence of diseases in the control group, state of illness was examined according to grading standards, and a disease index and inhibition rate were calculated.

[4] = test system: Rice Sheath Blight Disease; experiment: Microbicidal activity, spray then strip inoculation (Embodiment 8); details: for pest or weed control at 500 µg/g: Oryza sativa, read-out: Rice Sheath Blight Disease Average inhibition rate (%)
Experimental: as §1, §2

[5] = test system: Cucumber Angular Leaf Spot; experiment: Microbicidal activity on cucumber seedlings, spray then inoculation (Embodiment 8); details: for pest or weed control at 500 µg/g: Cucumis sativus, read-out: Cucumber Angular Leaf Spot Average inhibition rate (%); for Cucumber Angular Leaf Spot Average inhibition rate (%): testing concentration of 500 μg/g
Experimental: as §1, §2

[6] = test system: Corynespora Leaf Spot of Cucumber; experiment: Microbicidal activity on cucumber seedlings, spray then spore inoculation (Embodiment 8); details: for pest or weed control at 500 µg/g: Corynespora, in Cucumis sativus, read-out: Corynespora Leaf Spot of Cucumber Average inhibition rate (%)
Experimental: as §1, §2

[7] = test system: early blight of tomato; experiment: Spawn growth rate on agar plates (Embodiment 9); type: cell-based, Alternaria solania; details: 48 h; testing concentration of 100 μg/g; Table 5
[8] = test system: anthracnose of cucumber; experiment: Spawn growth rate on agar plates (Embodiment 9); type: cell-based, GloeosporiumorbiculareArs; details: 48 h; testing concentration of 100 μg/g; Table 5
[9] = test system: Cucumber Angular Leaf Spot; experiment: Microbicidal activity on cucumber seedlings, spray then inoculation (Embodiment 7); details: for pest or weed control at 500 µg/g: Cucumis sativus, read-out: Cucumber bacterial spot (%), controlling effect; for Cucumber bacterial spot (%), controlling effect: testing concentration of 500 μg/g, cucumber seedling
Experimental: Testing Materials: Strain: Cucumber Angular Leaf Spot
Testing method: a cucumber seedling at the stage of 2 seminal leaves was inoculated by spraying a suspension of Cucumber Angular Leaf Spot. Testing agents and control agents were sprayed uniformly on the seminal leaves at A.M. of a sunshine day respectively. After 2 hours, the leaves were inoculated with pathogenic microbes and cultured at humidity. After full occurrence of disease in control group, state of illness was examined according to grading standards, and the controlling effects were measured.

[10] = test system: wheat scab; experiment: microbe, parasite or virus in culture; type: cell-based, Gibberella zeae; details: 48 h, read-out: Wheat scab Average inhibition rate (%)
[11] = testing concentration of 500 μg/g

Compound | inhibition of growth at 100 µg/g [1] [%] | inhibition of growth at 100 µg/g [2] [%] | melting point [°C] | pest or weed control at 500 µg/g [3] [%] | pest or weed control at 500 µg/g [4] [%] | pest or weed control at 500 µg/g [5] [%] | pest or weed control at 500 µg/g [6] [%] | inhibition of growth at 100 µg/g [7] [%] | inhibition of growth at 100 µg/g [8] [%] | pest or weed control at 500 µg/g [9] [%] | inhibition of growth at 100 µg/g [10] [%] | Cucumber bacterial spot (%), controlling effect [9] [%] | Cucumber Angular Leaf Spot Average inhibition rate (%) [5] [%] | Downy Mildew of Cucumber Average inhibition rate (%) [3, 11] [%] | Rice Sheath Blight Disease Average inhibition rate (%) [4, 11] [%] | Corynespora Leaf Spot of Cucumber Average inhibition rate (%) [6, 11] [%]
Cc1ncc(Cn2cc(COc3cccc(C(F)(F)F)c3)nn2)c(N)n1 [Compound 4] | 66 | 77 | 160 to 161 | 35 | 60 | 60 | 70 | 51 | 65 | – | – | – | – | – | – | –
Cc1ncc(Cn2cc(COC(=O)c3cccc(Cl)c3)nn2)c(N)n1 [Compound 39] | 50 | 84 | 165 to 166 | – | 60 | 10 | – | – | 52 | 60 | – | – | – | – | – | –
Cc1ccc(Cl)c(OCc2cn(Cc3cnc(C)nc3N)nn2)c1 [Compound 5] | 56 | 67 | 184 to 185 | 70 | 80 | 50 | 70 | – | – | – | – | – | – | – | – | –
Cc1ncc(Cn2cc(COc3ccc(Cl)cc3)nn2)c(N)n1 [Compound 2] | 52 | 73 | 168 to 170 | 75 | 80 | 60 | 55 | – | 50 | – | 51 | – | – | – | – | –
Cc1ccc(C(=O)OCc2cn(Cc3cnc(C)nc3N)nn2)cc1 [Compound 38] | – | 61 | 202 to 203 | – | 50 | 40 | – | – | 54 | 60 | 56 | – | – | – | – | –
Cc1ncc(Cn2cc(COC(=O)c3ccc([N+](=O)[O-])cc3)nn2)c(N)n1 [Compound 32] | 87 | 59 | – | – | 60 | – | – | 63 | 67 | 60 | – | – | – | – | – | –
Nc1nnc([S-])s1.Nc1nnc([S-])s1.[Cu+2] [Thiodiazole-copper, reference compound] | – | – | – | – | – | – | – | – | – | – | – | 65.89 | 66 | – | – | –
Zhongshengmycin [reference compound] | – | – | – | – | – | – | – | – | – | – | – | 70.69 | 70 | 40 | 50 | 50
Cc1ncc(Cn2cc(COc3ccc([N+](=O)[O-])cc3Cl)nn2)c(N)n1 [Compound 15] | – | 44 | 194 to 196 | 30 | 60 | 60 | 80 | – | 57 | – | – | – | – | – | – | –
Cc1ncc(Cn2cc(COC(=O)c3cc([N+](=O)[O-])cc([N+](=O)[O-])c3)nn2)c(N)n1 [Compound 35] | 75 | 49 | 142 to 143 | – | 50 | 80 | – | – | 50 | 45 | – | – | – | – | – | –
